Source: a melting point compilation (Tetko et al.; mined from patent text by program, amines drawn as free bases though some values may be those of a salt)

SMILES | melting point
O=C(CCc1cccnc1)NCCCCC1CCN(C(=O)Nc2cccc3ccccc23)CC1 | 143 to 144 °C
NC(=O)c1ccc(N2CCN(CCC3=CCCc4ccccc43)CC2)cc1 | 216 °C
CCCCN(C=NC1=C(C(=O)OCC)C(c2ccccc2Cl)C(C(=O)OCC)=C(C)N1)CCCC (stereo not given) | 126 °C
CCC1c2cccn2-c2ccc(Cl)cc2N1C(=O)c1ccc(O)cc1O (stereo not given) | 198 to 201 °C
COc1nc2ccccc2nc1NC(=O)N1CCC(c2ccccc2)(c2ccccc2)CC1 | 202 to 204 °C
Cc1[nH]cnc1CCCCNC(=N)N | 152 to 154 °C
O=C(CCl)Nc1ccc2c(c1NC(=O)C1CCCCC1)C(=O)c1ccccc1C2=O | 216 to 217 °C
O=C(c1cccc2cc[nH]c12)N1CCN(c2ccc(F)cc2)CC1 | 222 to 224 °C
O=C(O)C(=O)Nc1ccc2c(=O)n3c(nc2c1)C(=Cc1ccccc1)CC3 | 198 to 200 °C
Cc1ccc(-c2ccc3c(c2)C=C(C(=O)Nc2ccc(CN4CCN(C(c5ccccc5)c5ccccc5)CC4)cc2)CC3)cc1 | 217 to 218 °C
CCCCNC(=O)Nc1ccc(SCC)cc1C(=O)NCC1CCN(C(c2ccccc2)c2ccccc2)CC1 | 159 to 160 °C
O=C(O)c1cc(CO)nn1-c1ncccc1Cl | 178 to 180 °C
O=C(O)c1ccc(-c2coc(-c3cccc(C(F)(F)F)c3)n2)cc1 | 268 to 269 °C
Cc1ccc(C)c(Cc2c3ccc(C(C)(C)C)cc3c(Cc3cc(C)ccc3C)c3ccc(C(C)(C)C)cc23)c1 | 273 to 275 °C
N=C(OCC1CC1)N1CCC(c2nsc3ccccc23)CC1 | 85 to 87 °C
CCCn1c(=O)c(=O)[nH]c2cc([N+](=O)[O-])c(-n3ccc(=O)cc3)cc21 | > 300 °C
OCCNCCOCCOCCNCCO | 49 to 55 °C
CC(C)c1ccc(NC(=O)Oc2ccc3c(c2)CCN3)cc1 | 166 to 170 °C
O=C(O)c1cc(NCc2ccc(C(F)(F)F)cc2)ccc1O | > 188 °C
CC(C)n1c(=O)c2ccccc2n(SC(Cl)(Cl)Cl)c1=O | 105 to 106 °C
CC(=O)N1CCc2cccc(Cl)c2CC1 | 64 to 66 °C
COc1ccccc1C1OC2(CCNCC2)N2CCCCC12 (stereo not given) | 185 to 186 °C
COc1ccc(Cn2nc(-c3cccc(Cl)c3)c3ncccc3c2=O)cn1 | 145 °C
c1ccc2c(c1)CCc1ccc(-c3nnn[nH]3)cc1S2 | 205 °C
CCC(=O)NCCc1cnn2ccc3occc3c12 | 104 to 106 °C

SMILES | melting point
CCOc1c(C)cc([N+](=O)[O-])cc1C | 56 °C
CC(=O)n1cc(-c2ccccc2)c(O)n1 | 215 °C
COC(=O)C1C(N2C(=O)c3ccccc3C2=O)C(=O)N1Cc1ccc(OC)cc1 (stereo not given) | 141 to 142 °C
Cc1ccc(C(=O)NCc2ccccc2)cc1-c1nc(NCCCN(C)C)nc2c1CNC(=O)N2c1c(F)cccc1F | 141 to 144 °C
Cc1cccc(OCC(=O)NCCO[N+](=O)[O-])c1 | 40 to 42 °C
CN(C)c1c(Br)cc2c3c(cccc13)C(=O)N(O)C2=O | 185 to 187 °C
COC(=O)c1c(C=O)n(C)c2ccc(OC)cc12 | 133 to 134 °C
CCC(C)c1nn(-c2ccc(C(F)(F)F)cn2)cc1C=O (stereo not given) | 82 to 83 °C
C[C@H](CCC[C@@H](C)[C@H]1C(=O)C[C@H]2[C@@H]3CC=C4C[C@@H](O)CC[C@]4(C)[C@H]3CC[C@]12C)CN1C(=O)c2ccccc2C1=O | 55 °C
Cc1ccc([N+](=O)[O-])cc1Nc1nccc(-c2ccc(Cl)nc2)n1 | 210 to 212 °C
COc1cc2c(cc1OC)/C(=C/c1cc(OC)c(OC)c(OC)c1)N(C(=O)Cc1cc(OC)c(OC)c(OC)c1)CC2 | 148 to 150 °C
COC(=O)c1cccc(-c2cccc(N)c2)c1 | 63 to 65 °C
COCC(C#N)=Cc1cc(OC)c2c(c1)OCO2 | 115 °C
CCOCCCOc1ccc2c(c1)C(N(CC)S(C)(=O)=O)CC(C)(C)O2 (stereo not given) | 72 to 74 °C
Cc1sc(-c2ccccc2)nc1COc1ccc(CCC[C@@H]2OC(=O)NC2=O)cc1 | 113 to 114 °C
O=S1(=O)c2cccc3cccc(c23)N1CCN1CCN(c2nsc3ccccc23)CC1 | 162 °C
O=C1Nc2cc3c(cc2C12COc1cc4c(cc12)CCO4)OCCO3 (stereo not given) | > 250 °C
C=C(c1ccccc1)C(O)C(NC=O)C(=O)OC (stereo not given) | 173 to 174 °C
COc1cc(C(=O)N2Cc3ccc(C(=O)NCc4ccc(C)cc4C)n3Cc3ccccc32)ccc1-c1ccccc1C | 161 to 162 °C
O=C(NCCCCc1ccccc1)Oc1ccc2oc3ccccc3c2c1 | 113 to 114 °C
Nc1c(Cl)cc(C(=O)NC2CCNCC2)c2c1CCO2 | 190 °C
COc1c(C)c(C(=O)c2ccc3[nH]c(=O)n(O)c(=O)c3c2)n2ccccc12 | 300 °C
CN1C(=O)C([S-])=C(SC(N)=[NH2+])C1=O | 150 to 152 °C
COC(=O)CC(NC(=O)CC1CCCCC1)C(C)=O (stereo not given) | 75 to 76 °C
CCN(CC)C(=O)c1ccc(OCCCl)cc1 | 80 to 81 °C

SMILES | melting point
O=S1c2ccccc2C(CCCl)(CCCl)c2ccccc21 | 126 to 127 °C
O=[N+]([O-])c1ccc(Cl)c(C=Cc2nc3ccccc3o2)c1 | 230 °C
Cc1nnc(Sc2nc3ccc(Cl)cc3nc2C)s1 | 189 to 190 °C
CC(C)Oc1c(C(=O)Nc2nnn[nH]2)sc2c1CN(C(=O)OC(C)(C)C)CC2 | 189 to 191 °C
COc1cc(Nc2c(C#N)cnc3cc(/C=C/n4nccn4)sc23)c(Cl)cc1Cl | 315 to 316 °C
CCOC(=O)C(C)=NNc1ccc(C(O)(C(F)(F)F)C(F)(F)F)cc1 | 167 to 168 °C
Cc1ccc(S(=O)(=O)NCCNC2(c3ccc(Cl)cc3)OC(=O)c3ccccc32)cc1 (stereo not given) | 177 to 179 °C
COCOc1c(OC)cc(C(=O)C(=O)O)c2cccc(Cc3ccccc3)c12 | 75 to 79 °C
Cn1nc(-c2ccccc2)nc1-c1cccnc1 | 97 to 98 °C
Cc1ccc(N)cc1C(=S)OC(C)(C)C | 76 to 78 °C
C1=C(c2c[nH]c3ccccc23)CCN(CC2CCc3ccccc3O2)C1 (stereo not given) | 171 to 173 °C
C[C@@H]1[C@H](c2ccccc2)OC(=O)N1C(=O)CC1c2ccccc2C=Cc2ccccc21 | 172 to 173 °C
CCCCCCc1cc2c(s1)NC(=O)C(C)N=C2c1ccccc1C (stereo not given) | 173 to 175 °C
CC1(C)CCC(C)(C)c2cc(C(O)C#Cc3ccc(C(=O)O)cc3)ccc21 (stereo not given) | 146 to 147 °C
COC(=O)C1CC(c2ccc(OC)c(OC)c2)=NO1 (stereo not given) | 106 to 108 °C
Clc1ccc2ncc(Cl)nc2c1 | 120 to 121 °C
COC(=O)c1c(-c2ccc(C(F)(F)F)cc2)ccc2ccccc12 | 74 to 76 °C
CN1CCN(c2cccc3c2C[C@H](NC(=O)c2ccc(C(=O)N4CCOCC4)cc2)CO3)CC1 | 222 °C
Nc1c(S(=O)(=O)C(F)(F)F)c(-c2ncon2)nn1-c1c(Cl)cc(C(F)(F)F)cc1Cl | 205 to 208 °C
CCNC(=O)c1sc(-n2ccc(OCc3ccccc3)cc2=O)cc1C | 158 to 160 °C
CCOC(=O)c1cc2cc(Oc3ccc(S(C)(=O)=O)cc3)cc(OC)c2[nH]1 | 161 to 162 °C
Cc1ccc(-n2nc3c4cc(Cc5ccccc5)ccc4[nH]c(=O)n3c2=O)cc1 | 299 °C
Cn1nc(-c2cc(C=O)c(Cl)cc2F)c(Cl)c1C(F)(F)F | 70 to 72 °C
C=C(c1ccc(C(=O)O)cc1)C(O)(Cn1cncn1)c1ccc(F)cc1F (stereo not given) | 189 to 190 °C
C=Cn1cc(C(=O)O)c(=O)c2cc(F)c(N3CCNCC3)cc21 | 248 to 251 °C

SMILES | melting point
Cc1cc(-c2cc(C(F)(F)F)n3ncc(C(=O)Nc4cccc(S(=O)(=O)N5CCOCC5)c4)c3n2)ccc1Cl | 251 °C
C#CCCN1CCC(O)(Cc2ccccc2)CC1 | 51 to 53 °C
O=C(CCCN1C(=O)c2ccccc2C1=O)Nc1nnc(SCc2ccccc2)s1 | 128 to 131 °C
O=C(CCCCC(=O)Oc1cccc(O)c1O)Oc1cccc(O)c1O | 110 to 111 °C
CCN(CC)c1nc(NCCCCO)nc(Nc2ccc3cc(-c4ccccc4)c(=O)oc3c2)n1 | 124 to 126 °C
CC(C)(C)OC(=O)c1ccc[nH]1 | 87 to 89 °C
CO[C@@H]1C=C2C=C3C(=C(C)C(=O)N3C)C[C@]2(C)[C@@H](C)[C@H]1OC(=O)c1ccco1 | 155 to 158 °C
CCOC(=O)c1c(Cc2ccccc2)c2ccccc2[nH]c1=O | 230 °C
Nc1nc2c(sc(=O)n2C2OC(COC(=O)c3ccccc3)C(OC(=O)c3ccccc3)C2F)c(=O)[nH]1 (stereo not given) | 282 to 284 °C
O=C(CCCCCC1(C(=O)O)CC1)CCCCCC1(C(=O)O)CC1 | 122 to 123 °C
COc1ccc(CNc2nc(OCc3ccccn3)ncc2C(=O)OCc2ccccn2)cc1Cl | 115 to 120 °C
N#Cc1c(O)csc1N1CCOCC1 | 191 °C
COc1ccc(C2=NN(C3CCN(C(=O)NC(C)(C)C)CC3)C(=O)CC2)cc1OC | 76 to 78 °C
CC(C)(C=O)C(=O)C(C)(Cc1ccc(C(C)(C)C)cc1)C(=O)O (stereo not given) | 116 to 118 °C
Cc1cccc2c(-c3ccc(F)cc3)nccc12 | 91 to 92 °C
Nc1ccc(S(=O)(=O)Nc2nnc(CC(=O)O)s2)cc1 | 209 to 210 °C
CC(C)(C)OC(=O)NC(N)Cc1ccccc1 (stereo not given) | 40 to 50 °C
O=C(Nc1nc(C(F)(F)F)co1)C1c2ccccc2Oc2ccc(F)cc21 (racemic) | 241 °C
CN1CCC(c2cccc3ccc(-n4cnc5ncccc54)cc23)CC1 | 118 to 120 °C
Cc1cc(-c2cccc(C(F)(F)F)c2)c2ncc(C(F)(F)F)nc2c1 | 93 to 94 °C
Cc1sc(-c2ccccc2)nc1CCOc1ccc([N+](=O)[O-])cn1 | 131 to 132 °C
CCCn1cc(Cc2ccc(C(=O)O)cc2OC)c2cc(CC(C)C(=O)N3CCCC3)ccc21 (stereo not given) | 92 to 100 °C
CC(C)(CO)Nc1nc(-c2ccc(C#N)c(F)c2)cs1 | 128 to 130 °C
O=C(CNS(=O)(=O)c1ccc(N2CCC(c3ccccc3)CC2)cc1)NO | 164 to 166 °C
CC(C)(C)c1cc(S)n2ncnc2n1 | 285 to 286 °C
